Data as given in DBAASP.
≈ marks a conversion by molar mass, not a printed value. One block for each compound: values may come before it.

Assays:
Assay in all cases: ≥ marks a high value that may be exact or a test limit, other limits are often not marked, values filed in µg/mL are converted to µM
[1] = test system: Enterococcus faecium mic80
[2] = test system: Staphylococcus aureus C623
[3] = test system: Enterococcus faecalis W61950
Pseudomonas aeruginosa 9 = test system: Pseudomonas aeruginosa 9
[4] = test system: Stenotrophomonas maltophilia ATCC 13637
[5] = test system: Klebsiella pneumoniae ESBL 63575
[6] = test system: Enterobacter cloacae 218R
[7] = test system: Pseudomonas aeruginosa H1030
[8] = test system: Klebsiella pneumoniae ESBL 61962
[9] = test system: Staphylococcus aureus ATCC 25923
[10] = test system: Escherichia coli ESBL 64771
[11] = test system: Pseudomonas aeruginosa H1027
[12] = test system: Escherichia coli ESBL 63103
[13] = test system: Enterococcus faecium t62764
[14] = test system: Enterococcus faecalis f43559
[15] = test system: Pseudomonas aeruginosa 213
[16] = test system: Pseudomonas aeruginosa PAO1 H103
[17] = test system: Pseudomonas aeruginosa LES400
[18] = test system: Enterococcus faecalis ATCC 29212
[19] = test system: Pseudomonas aeruginosa 198
[20] = test system: Escherichia coli ATCC 25922
[21] = test system: Candida albicans ATCC 20032
[22] = test system: Bacillus subtilis ATCC 6633
Bacillus subtilis = test system: Bacillus subtilis
Escherichia coli = test system: Escherichia coli
[23] = test system: Pseudomonas aeruginosa ATCC 27853
[24] = test system: Salmonella enterica subsp. enterica serovar Typhi
[25] = test system: Candida albicans ATCC 90028
Staphylococcus aureus = test system: Staphylococcus aureus
Pseudomonas aeruginosa = test system: Pseudomonas aeruginosa
Enterobacter cloacae = test system: Enterobacter cloacae
[26] = test system: Staphylococcus sp. BCRC 10451
[27] = test system: Candida albicans NCTC 3179
[28] = test system: Staphylococcus aureus RN4220
Escherichia coli ML-35p = test system: Escherichia coli ML-35p
[29] = test system: Malassezia sympodialis ATCC 42132

Compound: CC[C@H](C)[C@H](NC(=O)CN)C(=O)NCC(=O)NCC(=O)N[C@@H](C)C(=O)N[C@@H](CC(C)C)C(=O)N[C@@H](CC(C)C)C(=O)N[C@@H](CO)C(=O)N[C@@H](C)C(=O)NCC(=O)N[C@@H](CCCCN)C(=O)N[C@@H](CO)C(=O)N[C@@H](C)C(=O)N[C@@H](CC(C)C)C(=O)N[C@@H](CCCCN)C(=O)NCC(=O)N[C@@H](CC(C)C)C(=O)N[C@@H](C)C(=O)N[C@@H](CCCCN)C(=O)NCC(=O)N[C@@H](CC(C)C)C(=O)N[C@@H](C)C(=O)N[C@@H](CCC(=O)O)C(=O)N[C@@H](Cc1cnc[nH]1)C(=O)N[C@@H](CC(C)C)C(N)=O [GIGGALLSAGKSALKGLAKGLAEHL]
MIC [9]: 8.06 µM (≈ 18.8 µg/mL) | MIC [20]: > 42.9 µM | MIC [21]: ≥ 42.9 µM | MIC [22]: ≥ 42.9 µM

Compound: CC[C@H](C)[C@H](NC(=O)[C@H](CCCCN)NC(=O)[C@@H]1CCCN1C(C)=O)C(=O)N[C@H](C(=O)N[C@@H](CO)C(=O)N[C@@H](CO)C(=O)N1CCC[C@H]1C(=O)N[C@@H](CC(C)C)C(=O)N[C@@H](Cc1ccccc1)C(=O)N[C@@H](CCCCN)C(=O)N[C@H](C(=O)N[C@@H](CC(C)C)C(=O)N[C@@H](CC(C)C)C(=O)N[C@@H](CO)C(=O)N[C@@H](C)C(=O)N[C@H](C(=O)NCC(=O)N[C@@H](CO)C(=O)N[C@@H](C)C(=O)N[C@@H](CC(C)C)C(=O)N[C@@H](CO)C(=O)N[C@@H](CO)C(=O)N[C@@H](CO)C(=O)NCC(=O)NCC(=O)N[C@@H](CCC(N)=O)C(=O)N[C@@H](CCC(=O)O)C(N)=O)C(C)C)[C@@H](C)O)[C@@H](C)CC [PKIISSPLFKTLLSAVGSALSSSGGQE]
MIC [26]: ≥ 37.4 µM

Compound: CC[C@H](C)[C@H](NC(=O)[C@H](CCCN=C(N)N)NC(=O)[C@H](C)NC(=O)[C@H](CC(C)C)NC(=O)[C@@H](N)CCCN=C(N)N)C(=O)N[C@H](C(=O)N[C@H](C(=O)N[C@H](C(=O)N[C@@H](CCCN=C(N)N)C(=O)N[C@H](C(=O)N[C@@H](C)C(=O)N[C@@H](CCCN=C(N)N)C(=O)O)C(C)C)[C@@H](C)CC)C(C)C)C(C)C [RLARIVVIRVAR]
MIC [1]: 5.91 µM (≈ 8.4 µg/mL) | MIC [2]: 12 µM (≈ 17 µg/mL) | MIC [3]: 23.9 µM (≈ 34 µg/mL) | MIC (Pseudomonas aeruginosa 9): ≥ 95 µM | MIC [4]: 1.48 µM (≈ 2.1 µg/mL) | MIC [5]: ≥ 95 µM | MIC [6]: 12 µM (≈ 17 µg/mL) | MIC [7]: ≥ 47.1 µM | MIC [8]: ≥ 95 µM | MIC [9]: 12 µM (≈ 17 µg/mL) | MIC [10]: 12 µM (≈ 17 µg/mL) | MIC [11]: 5.91 µM (≈ 8.4 µg/mL) | MIC [12]: 12 µM (≈ 17 µg/mL) | MIC [13]: 1.48 µM (≈ 2.1 µg/mL) | MIC [14]: 23.9 µM (≈ 34 µg/mL) | MIC [15]: ≥ 95 µM | MIC [16]: 23.9 µM (≈ 34 µg/mL) | MIC [17]: ≥ 47.1 µM | MIC [18]: 5.91 µM (≈ 8.4 µg/mL) | MIC [19]: ≥ 47.1 µM

Compound: CC[C@H](C)[C@H](NC(=O)[C@H](CCCCN)NC(=O)[C@@H](NC(=O)[C@@H](NC(=O)[C@H](CC(N)=O)NC(=O)[C@H](CCC(=O)O)NC(=O)[C@H](CCC(=O)O)NC(=O)[C@H](CCC(N)=O)NC(=O)[C@@H](N)CCC(=O)O)C(C)C)C(C)C)C(=O)N[C@@H](CCC(N)=O)C(=O)N[C@@H](C)C(=O)N[C@@H](Cc1ccccc1)C(=O)N[C@@H](Cc1c[nH]c2ccccc12)C(=O)N[C@@H](CCCCN)C(=O)NCC(=O)N[C@@H](Cc1ccc(O)cc1)C(=O)N[C@@H](CCCCN)C(=O)N[C@@H](CCC(N)=O)C(=O)N[C@@H](CCCN=C(N)N)C(=O)N[C@@H](CCCCN)C(=O)N[C@@H](CCC(=O)O)C(=O)N[C@@H](Cc1ccc(O)cc1)C(=O)N[C@@H](CCSC)C(=O)O [EQEENVVKIQAFWKGYKQRKEYM]
MIC [9]: 32.1 µM (≈ 94 µg/mL) | MIC [27]: 28.3 µM (≈ 83 µg/mL) | MIC [20]: 2.15 µM (≈ 6.3 µg/mL)

Compound: NC(=O)[C@H](CCCN=C(N)N)NC(=O)[C@H](CCCN=C(N)N)NC(=O)[C@H](CCCN=C(N)N)NC(=O)[C@H](CCCN=C(N)N)NC(=O)[C@H](CCCN=C(N)N)NC(=O)[C@H](CCCN=C(N)N)NC(=O)[C@H](CCCN=C(N)N)NC(=O)[C@H](CCCN=C(N)N)NC(=O)[C@@H](N)CCCN=C(N)N [RRRRRRRRR]
MIC [28]: ≥ 100 µM | MIC (Escherichia coli ML-35p): ≥ 100 µM | MIC [29]: 9.83 µM (≈ 14 µg/mL)

Results, then the compound that gave them:

MIC [1]: 2.97 µM (≈ 4.2 µg/mL) | MIC [2]: 1.48 µM (≈ 2.1 µg/mL) | MIC [3]: 24 µM (≈ 34 µg/mL) | MIC (Pseudomonas aeruginosa 9): 24 µM (≈ 34 µg/mL) | MIC [4]: 0.777 µM (≈ 1.1 µg/mL) | MIC [5]: 6 µM (≈ 8.5 µg/mL) | MIC [6]: 2.97 µM (≈ 4.2 µg/mL) | MIC [7]: 24 µM (≈ 34 µg/mL) | MIC [8]: ≥ 48 µM | MIC [9]: 1.48 µM (≈ 2.1 µg/mL) | MIC [10]: 2.97 µM (≈ 4.2 µg/mL) | MIC [11]: 2.97 µM (≈ 4.2 µg/mL) | MIC [12]: 12 µM (≈ 17 µg/mL) | MIC [13]: 1.48 µM (≈ 2.1 µg/mL) | MIC [14]: 24 µM (≈ 34 µg/mL) | MIC [15]: 24 µM (≈ 34 µg/mL) | MIC [16]: 2.97 µM (≈ 4.2 µg/mL) | MIC [17]: 6 µM (≈ 8.5 µg/mL) | MIC [18]: 12 µM (≈ 17 µg/mL) | MIC [19]: 6 µM (≈ 8.5 µg/mL)
Compound: CC[C@H](C)[C@H](N)C(=O)N[C@@H](Cc1c[nH]c2ccccc12)C(=O)N[C@@H](Cc1c[nH]c2ccccc12)C(=O)N[C@@H](CCCCN)C(=O)N[C@@H](Cc1c[nH]c2ccccc12)C(=O)N[C@@H](CCCN=C(N)N)C(=O)N[C@@H](CCCN=C(N)N)C(=O)N[C@@H](Cc1c[nH]c2ccccc12)C(=O)N[C@H](C(=O)O)C(C)C [IWWKWRRWV]

MIC (Bacillus subtilis): ≥ 34.8 µM | MIC (Escherichia coli): 17.4 µM (≈ 32 µg/mL) | MIC [23]: 69.6 µM (≈ 128 µg/mL) | MIC [24]: 17.4 µM (≈ 32 µg/mL) | MIC [9]: 2.17 µM (≈ 4 µg/mL) | MIC [25]: ≥ 69.6 µM | MIC [20]: 69.6 µM (≈ 128 µg/mL) | MIC (Staphylococcus aureus): 69.6 µM (≈ 128 µg/mL) | MIC (Pseudomonas aeruginosa): 17.4 µM (≈ 32 µg/mL) | MIC (Enterobacter cloacae): ≥ 139 µM
Compound: CC(C)C[C@H](NC(=O)[C@H](CCCCN)NC(=O)[C@H](CCCN=C(N)N)NC(=O)[C@H](Cc1ccccc1)NC(=O)[C@H](Cc1ccccc1)NC(=O)[C@H](CCCCN)NC(=O)[C@H](CCCCN)NC(=O)[C@H](Cc1ccccc1)NC(=O)[C@H](CCCN=C(N)N)NC(=O)[C@H](CCCCN)NC(=O)[C@@H](N)C(C)C)C(=O)N[C@@H](CCCCN)C(=O)N[C@@H](CCCCN)C(=O)N[C@@H](CO)C(N)=O [VKRFKKFFRKLKKS]

MIC [9]: 4.68 µM (≈ 9.4 µg/mL) | MIC [20]: 18.7 µM (≈ 37.5 µg/mL) | MIC [21]: 9.37 µM (≈ 18.8 µg/mL) | MIC [22]: 4.68 µM (≈ 9.4 µg/mL)
Compound: CC[C@H](C)[C@H](NC(=O)CN)C(=O)NCC(=O)NCC(=O)N[C@@H](C)C(=O)N[C@@H](CC(C)C)C(=O)N[C@@H](CC(C)C)C(=O)N[C@@H](CO)C(=O)N[C@@H](C)C(=O)NCC(=O)N[C@@H](CCCCN)C(=O)N[C@@H](C)C(=O)N[C@@H](C)C(=O)N[C@@H](CC(C)C)C(=O)N[C@@H](CCCCN)C(=O)NCC(=O)N[C@@H](CC(C)C)C(=O)N[C@@H](C)C(=O)N[C@@H](CCCCN)C(=O)N[C@H](C(=O)N[C@@H](CC(C)C)C(=O)N[C@H](C(N)=O)C(C)C)C(C)C [GIGGALLSAGKAALKGLAKVLV]
